Patent US6413989B1, “Piperidinylmethyloxazolidinone derivative” (Merck Patent Gesellschaft mit beschrankter Haftung, priority 1997, dated 2002)
Read-outs that look alike come from different tables or passages of the source.

Tests used:
[1] = molecular target: T1, polyamine binding site (ifenprodil binding site at the NMDA receptor/ion channel complex) (Rattus norvegicus, UniProt P35439+Q00960); assay: Ifenprodil binding ([3H]-ifenprodil displacement, rat forebrain membranes)
T1 construct: Homogenates of rat forebrain were centrifuged repeatedly; from tissue; host or cells: rat forebrain membranes
Protocol: (§1) Additionally, in the binding experiment this active compound displaces tritiated ifenprodil in the forebrain of rats from its binding site (for method see Schoemaker et al., European J. Pharmacol. 176 (1990), 249-250), which represents a receptor at the N-methyl-D-aspartate (NMDA) receptor/ion channel complex as a subtype of the glutamate receptors.
1. Ifenprodil binding (Schoemaker et al., 1990)
Homogenates of rat forebrain were centrifuged repeatedly. The last membrane […] (10 mg/ml) was used to determine the specific binding in the presence of 1.15 nM [^3H]-ifenprodil in 5 ml of buffer solution at pH 7.4. The unspecific binding was determined in the presence of 100 μM of ifenprodil.

[2] = tested on: rats; assay: Inhibition of apomorphine-induced stereotypical behaviour in rats; assay type: in vivo, rat; details: for ED50: Rattus norvegicus, sc, read-out: Inhibition of apomorphine-induced stereotypical behaviour in rats 50% inhibition/ED50 s.c. at:
Excerpt: as §1
2. Inhibition of apomorphine-induced stereotypical behaviour in rats (Puech et al., 1978):
Stereotypical behaviour (unmotivated sniffling, licking, chewing, rhythmic movements with the forepaws) was induced by administration of 0.5 mg/kg s.c. of apomorphine. The intensity of the ensuing stereotypical behaviour was assessed every 5 minutes for each rat for a period of 30 minutes using a rating system (0-3). The total score was used as a measure of the occurence of the stereotypical behaviour.

[3] = tested on: rats; assay: Catalepsy induction in rats; assay type: in vivo, rat
Protocol: as §1
3. Catalepsy induction in rats (Stanley and Glick, 1976):
The occurrence of catalepsy in rats was measured by placing a hindpaw on a 3 cm high block and scoring every 5 minutes for a period of 30 minutes the time for which the rat stayed in this unnatural position using a rating system (score 0-3). The total score was used as a measure of the intensity of the catalepsy.

[4] = tested on: mice; assay: Apomorphine-induced climbing behaviour in mice; assay type: in vivo, mouse
[5] = tested on: rats; assay: Conditioned avoiding reaction in rats; assay type: in vivo, rat
[6] = tested on: mice; assay: Spontaneous behaviour of mice (Irwin); assay type: in vivo, mouse
[7] = tested on: rats; assay: Ultrasound vocalization after electric stimulation in rats; assay type: in vivo, rat; details: proof of the anxiolytic action
[8] = tested on: rats; assay: Spontaneous behaviour of rats (Irwin); assay type: in vivo, rat
[9] = rat forebrain homogenate, 1.15 nM [3H]-ifenprodil, pH 7.4, methanesulfonate salts, read-out: Ifenprodil binding in vitro 50% displacement/IC50 at:
[10] = apomorphine 0.5 mg/kg s.c., methanesulfonate salts

T1 sequence (Q00960 27-1482, other chains not shown): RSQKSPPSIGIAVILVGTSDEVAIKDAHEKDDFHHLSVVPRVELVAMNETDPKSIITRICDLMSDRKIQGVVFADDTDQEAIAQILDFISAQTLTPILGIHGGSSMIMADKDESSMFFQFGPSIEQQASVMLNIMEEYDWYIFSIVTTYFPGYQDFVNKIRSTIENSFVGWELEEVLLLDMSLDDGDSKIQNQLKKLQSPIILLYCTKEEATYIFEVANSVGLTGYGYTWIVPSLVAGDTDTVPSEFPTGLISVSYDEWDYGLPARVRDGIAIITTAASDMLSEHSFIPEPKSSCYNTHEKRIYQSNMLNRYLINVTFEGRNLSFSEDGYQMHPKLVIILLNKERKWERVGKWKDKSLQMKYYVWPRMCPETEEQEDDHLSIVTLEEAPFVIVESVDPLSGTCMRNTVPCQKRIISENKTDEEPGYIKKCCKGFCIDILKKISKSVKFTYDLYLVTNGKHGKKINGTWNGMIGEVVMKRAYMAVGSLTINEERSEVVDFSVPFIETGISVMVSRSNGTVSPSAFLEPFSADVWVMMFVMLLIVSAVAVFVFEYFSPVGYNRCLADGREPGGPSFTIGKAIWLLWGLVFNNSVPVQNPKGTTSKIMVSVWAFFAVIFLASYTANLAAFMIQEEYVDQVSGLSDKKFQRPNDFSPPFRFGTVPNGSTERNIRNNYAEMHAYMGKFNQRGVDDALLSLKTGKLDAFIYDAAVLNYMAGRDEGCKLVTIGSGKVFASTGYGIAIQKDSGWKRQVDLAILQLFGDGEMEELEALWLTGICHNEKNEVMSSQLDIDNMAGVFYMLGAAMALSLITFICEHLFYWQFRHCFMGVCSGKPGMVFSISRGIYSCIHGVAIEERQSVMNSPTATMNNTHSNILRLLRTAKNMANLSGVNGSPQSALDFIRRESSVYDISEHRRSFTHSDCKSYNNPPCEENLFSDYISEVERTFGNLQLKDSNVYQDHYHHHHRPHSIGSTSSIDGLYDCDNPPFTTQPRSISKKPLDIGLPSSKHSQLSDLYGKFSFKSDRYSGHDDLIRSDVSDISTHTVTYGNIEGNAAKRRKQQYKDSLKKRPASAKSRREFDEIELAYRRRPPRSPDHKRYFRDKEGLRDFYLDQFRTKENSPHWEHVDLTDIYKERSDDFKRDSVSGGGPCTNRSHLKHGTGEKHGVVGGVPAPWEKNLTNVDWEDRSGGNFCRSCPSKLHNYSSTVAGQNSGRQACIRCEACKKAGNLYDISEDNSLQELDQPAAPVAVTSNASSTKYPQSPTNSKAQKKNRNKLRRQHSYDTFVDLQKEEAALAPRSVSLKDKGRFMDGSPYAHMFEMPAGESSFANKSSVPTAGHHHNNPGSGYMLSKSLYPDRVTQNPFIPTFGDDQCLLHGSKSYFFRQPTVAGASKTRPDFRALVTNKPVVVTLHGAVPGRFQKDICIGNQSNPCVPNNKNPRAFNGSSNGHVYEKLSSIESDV

## O=C1O[C@@H](CN2CCC(Cc3ccc(F)cc3)CC2)CN1c1ccc(F)cc1 [R = F, reference compound]
[1]; [9]
  IC50: > 1000 nM
[2]; [10]
  ED50: > 10 mg/kg

## COc1ccc(N2C[C@H](CN3CCC(Cc4ccc(F)cc4)CC3)OC2=O)cc1 [R = OCH3, (5S)-(−)-5-[4-(4-fluorobenzyl)-1-piperidinylmethyl]-3-(4-methoxyphenyl)-oxazolidin-2-one, reference compound]
[1]; [9]
  IC50: > 1000 nM
[2]; [10]
  ED50: > 10 mg/kg

## O=C1O[C@@H](CN2CCC(Cc3ccc(F)cc3)CC2)CN1c1ccc(O)cc1 [R = OH, (5S)-(−)-5-[4-(4-fluorobenzyl)-1-piperidinylmethyl]-3-(4-hydroxyphenyl)oxazolidin-2-one]
[3]; 30 mg/kg s.c., rat, methanesulfonate salt
  Catalepsy induction Rat: 0%
[3]; in vivo animal models
  Catalepsy ED50: > 30 mg/kg
[1]; in vitro, read-out: IC50 for the polyamine binding site
  IC50: 10 nM
[1]; [9]
  IC50: 10 nM
[2]; s.c., apomorphine 0.5 mg/kg s.c., methanesulfonate salts
  Inhibition of apomorphine-induced stereotypical behaviour in rats 50% inhibition/ED50 s.c. at:: 2.8 mg/kg

## Cc1ccc(N2C[C@H](CN3CCC(Cc4ccc(F)cc4)CC3)OC2=O)cc1 [R = CH3, reference compound]
[1]; [9]
  IC50: > 1000 nM
[2]; [10]
  ED50: > 10 mg/kg

## O=C1OC(CN2CCC(Cc3ccc(F)cc3)CC2)CN1c1ccc(O)cc1 (stereo not shown) [formula I, 5-[4-(4-fluorobenzyl)piperidin-1-ylmethyl]-3-(4-hydroxy-phenyl) oxazolidin-2-one]
[3]; rat, in vivo
  occurrence of catalepsy (in words): without the occurrence of catalepsy
[4]
  apomorphine-induced climbing behaviour in mice: inhibits
[5]
  conditioned avoiding reaction in rats: inhibits
[6]
  effect on the spontaneous behaviour of mice: depressive effect
[7]
  ultrasound vocalization after electric stimulation in rats: inhibits
[8]
  effect on the spontaneous behaviour of rats: depressive effect
[1]; forebrain of rats
  displacement of tritiated ifenprodil from its binding site: displaces
[2]
  apomorphine-induced stereotypical behaviour in rats (in words): inhibits
